# Patent US10597396B2, “Beta-lactamase inhibitors” (Novartis AG, priority 2016, dated 2020)
# Like-named read-outs stand apart in the source and are kept apart here.
# How the values were obtained:
# Type in all cases: cell-based
# E. coli (OXA-18) = test: microbe, parasite or virus in culture; conditions: for MIC: Escherichia coli
# Procedure: (§1) MICs were determined by the broth microdilution method in accordance with Clinical and Laboratories Institute (CLSI) guidelines. In brief, fresh overnight bacterial cultures were suspended in sterile saline, and adjusted to a 0.5 McFarland turbidity standard. Bacterial suspensions were then diluted in cation adjusted Mueller-Hinton Broth (MHB II; BBL) to yield a final inoculum of approximately 5×10^5 colony-forming units (CFU)/mL. A master plate of antibiotics was prepared at a concentration equivalent to hundred-fold the highest desired final concentration in 100% dimethyl sulfoxide (DMSO). The master antibiotic plate was then diluted by serial twofold dilution with a multichannel pipette. The resulting dilution series of compounds were diluted 1:10 with sterile water or a solution of beta-lactamase inhibitor prepared at a concentration equivalent to eleven-fold the desired final concentration in deionized water leading to a 10% DMSO final concentration. A volume of 10 μL of the drug dilution series was transferred to 96-well assay plates. Assay plates were inoculated with 90 μL of bacterial suspensions and incubated at 35° C. for 20 hrs. The assay plates were read using a microtiter plate reader (Molecular Devices) at 600 nm as well as by visual observation with a reading mirror. The lowest concentration of the compound that prevented visible growth was recorded as the MIC.
# (§2) Synergy or potentiation of beta-lactam antibiotics through inhibition of […] was assessed against an isogenic panel of E. coli strains, each expressing a unique beta-lactamase, and against clinical strains.
# (§3) Construction of E. coli isogenic strains, NB27273-CDY0105 (OXA-18) and NB27273-CDY0048 (TEM-10). […] The gene encoding OXA-18 was then digested with XhoI and EcoRI and inserted into this vector, from which the gene for GIM-1 had been removed with XhoI and EcoRI.
# These final vectors for expression of OXA-18 and TEM-10 were transformed into BW25113 pspB to generate strains NB27273-CDY0105 (expressing OXA-18) and NB27273-CDY0048 (expressing TEM-10).
# [1] = test system: E. coli ATCC 25922, K. pneumoniae ATCC 43816, P. aeruginosa ATCC 27853; test: Direct antibacterial activity of BLIs, summary of Table A in words; conditions: BLI alone; statement on Table A
# Procedure: as §1, with “A volume of 10 μL of the drug dilution series was transferred to 96-well assay plates. Assay plates were inoculated with 90 μL of bacterial suspensions and incubated at 35° C. for 20 hrs.” left out, “MIC. Performance of the assay was monitored by testing aztreonam against laboratory quality control strains in accordance with guidelines of the CLSI.” for “MIC.”
# [2] = test system: K. pneumoniae NB29323 (CTX-M-15, OXA-48, VEB-1); test: Potentiation of beta-lactam MIC in beta-lactam resistant clinical isolate; conditions: Klebsiella pneumoniae, read-out: Activity (MIC) of aztreonam alone
# Procedure: as §1, with “MIC. Performance of the assay was monitored by testing aztreonam against laboratory quality control strains in accordance with guidelines of the CLSI.” for “MIC.”
# as §2
# E. coli (CTX-M-15) = test: microbe, parasite or virus in culture; conditions: for MIC: Escherichia coli
# Procedure: as §1, §2
# (§4) Strain NB27273 (BW25113 pspB::Km^r) was obtained from the Keio transposon insertion collection. The strain has the pspB gene replaced by a kanamycin resistance marker (BW25113 pspB::Km^r). This strain was cured of the transposon in pspB via FLP recombinase using published methodology. The resulting strain, BW25113 pspB, was used as a host for multicopy vectors expressing key beta-lactamases. Multicopy plasmids directing constitutive expression of beta-lactamases were established as follows: Synthetic, codon optimized genes encoding E. coli KPC-2, SHV-12 and CTX-M-15 beta-lactamases were made by DNA2.0 (Palo Alto, Calif.). Each of the synthetic fragments were designed to contain NotI and NcoI restriction sites at their termini, allowing ligation into a NotI/NcoI digested pET28a(+) derivative for protein expression. […] The codon optimized nucleotide sequences and relevant primer recognition information is shown below:
# (§5) The PCR products were then digested with XhoI and EcoRI and ligated into similarly digested plasmid pAH63-pstS(BlaP). […] Therefore, expression of beta-lactamases from pAH63-pstS(BlaP) based constructs is constitutive and the signal sequence is provided to direct these proteins to the periplasm. […] These fragments were then digested with XbaI and EcoRI, and each was inserted into pBAD18-kan that had been digested with the same enzymes to generate multicopy vectors expressing KPC-2, SHV-12 and CTX-M-15, respectively. These vectors were transformed into BW25113 pspB to generate strains NB27273-CDY0033 (expressing KPC-2), NB27273-CDY0030 (expressing SHV-12), NB27273-CDY0034 (expressing CTX-M-15) and NB27273-CDY0036 (expressing AmpC). The pBAD18-kan vector also contains the TEM promoter region and signal sequence, (but lacks any intact beta-lactamase genes) and was transformed into BW25113 pspB using standard protocols to generate the control strain NB27273-CDY0026.
# E. coli (KPC-2) = test: microbe, parasite or virus in culture; conditions: for MIC: Escherichia coli
# Procedure: as §1, §2, §4, §5
# E. coli (SHV-12) = test: microbe, parasite or virus in culture; conditions: for MIC: Escherichia coli
# Procedure: as §1, §2, §4, §5
# E. coli (TEM-10) = test: microbe, parasite or virus in culture; conditions: for MIC: Escherichia coli
# Procedure: as §1, §2, §3
# From this template DNA, three fragments were generated by PCR using the following primer pairs;
# This fragment was then digested with XbaI and EcoRI and inserted into pBAD-kan which was also cut with the same enzymes. […]
# E. coli (AmpC) = test: microbe, parasite or virus in culture; conditions: for MIC: Escherichia coli
# Procedure: as §1, with “MIC. Performance of the assay was monitored by testing aztreonam against laboratory quality control strains in accordance with guidelines of the CLSI.” for “MIC.”
# as §2
# The gene encoding AmpC was PCR amplified from the genome of strain P. aeruginosa PAO1 (NB52019) (GenBank ID U5R279) using primer pair E252 (gccCTCGAGggcgaggccccggcggatcgc) (SEQ ID NO: 17) and E253 (tgaGAATTCtcagcgcttcagcggcacct) (SEQ ID NO: 18).
# The PCR products were then digested with XhoI and EcoRI and ligated into similarly digested plasmid pAH63-pstS(BlaP). Plasmid pAH63-pstS(BlaP) is a derivative of plasmid pAH63 (J Bacteriol: 183(21): 6384-6393) made by cloning the TEM-1 (bla) promoter and signal peptide encoding region from plasmid pBAD (J Bacteriol. 1995 July 177(14):4121-30) into plasmid pAH63. This fragment was PCR amplified from pBAD using primer pair E192 (ttcaCTGCAGtgaacgttgcgaagcaacggC) (SEQ ID NO:19) and E194 (TCGAggatcctcgagagcaaaaacaggaaggcaaaatgccg) (SEQ ID NO:20), digested with PstI and BamHI and inserted into similarly digested plasmid pAH63. Therefore, expression of beta-lactamases from pAH63-pstS(BlaP) based constructs is constitutive and the signal sequence is provided to direct these proteins to the periplasm. […]
# [3] = test system: Enterobacter cloacae NB25055 (CMY-2); test: Potentiation of beta-lactam MIC in beta-lactam resistant clinical isolate; conditions: read-out: Activity (MIC) of piperacillin alone
# Procedure: as §1, with “MIC. Performance of the assay was monitored by testing aztreonam against laboratory quality control strains in accordance with guidelines of the CLSI.” for “MIC.”
# as §2
# [4] = test system: K. pneumoniae NB29082 (KPC-2); test: as above; conditions: Klebsiella pneumoniae, read-out: Activity (MIC) of piperacillin alone
# Procedure: as §1, with “MIC. Performance of the assay was monitored by testing aztreonam against laboratory quality control strains in accordance with guidelines of the CLSI.” for “MIC.”
# as §2
# S. aureus NB01437 (BLA+) = test: as above; conditions: Staphylococcus aureus, read-out: Activity (MIC) of piperacillin alone
# Procedure: as §1, with “MIC. Performance of the assay was monitored by testing aztreonam against laboratory quality control strains in accordance with guidelines of the CLSI.” for “MIC.”
# as §2
# [5] = no BLI, read-out: Activity (MIC) of Beta-Lactam 5 alone
# [6] = read-out: MIC of ceftazidime alone, no BLI
molecule,measurement,setting,value
NC(=O)[C@@H]1CC[C@@H]2CN1C(=O)N2OS(=O)(=O)O [Avibactam],MIC of piperacillin in combination with the BLI,E. coli (OXA-18); BLI at 2 μg/mL,2 µg/mL
same,"Direct antibacterial activity of the BLI, in words",[1],exhibit direct antibacterial activity
C[C@H]1[C@H](NC(=O)/C(=N\OC(C)(C)C(=O)O)c2csc(N)n2)C(=O)N1S(=O)(=O)O [Aztreonam],MIC,[2],> 64 µg/mL
Nc1nc(/C(=N/OC2(C(=O)O)CC2)C(=O)N[C@@H]2C(=O)N(S(=O)(=O)O)[C@@H]2CN2CCOC2=O)cs1 [Beta-Lactam 5],MIC,E. coli (CTX-M-15); [5],0.125 µg/mL
same,MIC,"E. coli (KPC-2); E. coli (KPC-2), no BLI, read-out: Activity (MIC) of Beta-Lactam 5 alone",0.25 µg/mL
same,MIC,E. coli (SHV-12); [5],0.5 µg/mL
same,MIC,E. coli (TEM-10); [5],2 µg/mL
same,MIC,E. coli (AmpC); [5],0.25 µg/mL
same,MIC,E. coli (OXA-18); [5],0.5 µg/mL
CC(C)(O/N=C(\C(=O)N[C@@H]1C(=O)N2C(C(=O)O)=C(C[n+]3ccccc3)CS[C@H]12)c1csc(N)n1)C(=O)O [Ceftazidime],MIC,E. coli (CTX-M-15); [6],16 µg/mL
same,MIC,E. coli (KPC-2); read-out: MIC of ceftazidime alone,4 µg/mL
same,MIC,E. coli (SHV-12); [6],> 64 µg/mL
same,MIC,E. coli (TEM-10); [6],> 64 µg/mL
same,MIC,E. coli (AmpC); [6],4 µg/mL
same,MIC,E. coli (OXA-18); [6],> 64 µg/mL
"O=C1NC[C@@H]2C[C@@H]3CN(C(=O)N3OS(=O)(=O)[O-])[C@H]12.[Na+] [Example 1, Sodium (4R,5aS,8aS)-2,8-dioxohexahydro-2H-1,4-methanopyrrolo[3,4-d][1,3]diazepin-3(4H)-yl sulfate]",MIC of piperacillin in combination with the BLI,E. coli (OXA-18); BLI at 2 μg/mL,2 µg/mL
same,"Direct antibacterial activity of the BLI, in words",[1],does not exhibit much direct antibiotic activity
"CN1C[C@@H]2C[C@@H]3CN(C(=O)N3OS(=O)(=O)[O-])[C@@H]2C1=O.[Na+] [Example 2, Sodium (4R,5aS,8aS)-7-methyl-2,8-dioxohexahydro-2H-1,4-methanopyrrolo[3,4-d][1,3]diazepin-3(4H)-yl sulfate]",MIC of piperacillin in combination with the BLI,E. coli (OXA-18); BLI at 2 μg/mL,4 µg/mL
"O=C1[C@@H]2[C@@H](C[C@@H]3CN2C(=O)N3OS(=O)(=O)[O-])CN1C1CC1.[Na+] [Example 3, Sodium (4R,5aS,8aS)-7-cyclopropyl-2,8-dioxohexahydro-2H-1,4-methanopyrrolo[3,4-d][1,3]diazepin-3(4H)-yl sulfate]",MIC of piperacillin in combination with the BLI,E. coli (OXA-18); BLI at 2 μg/mL,4 µg/mL
"O=C1NCC[C@@H]2C[C@@H]3CN(C(=O)N3OS(=O)(=O)[O-])[C@H]12.[Na+] [Example 7, Sodium (4R,5aR,9aS)-2,9-dioxooctahydro-1,4-methanopyrido[3,4-d][1,3]diazepin-3(2H)-yl hydrogen sulfate]",MIC of piperacillin in combination with the BLI,E. coli (AmpC); BLI at 2 μg/mL,8 µg/mL
same,MIC of piperacillin in combination with the BLI,E. coli (OXA-18); BLI at 2 μg/mL,8 µg/mL
CCN1CCN(C(=O)N[C@@H](C(=O)N[C@@H]2C(=O)N3C2SC(C)(C)[C@@H]3C(=O)O)c2ccccc2)C(=O)C1=O (some centres unmarked) [Piperacillin],MIC,[3],> 64 µg/mL
same,MIC,[4],> 64 µg/mL
same,MIC,S. aureus NB01437 (BLA+),64 µg/mL
O=C(NC1CCNCC1)[C@@H]1CC[C@@H]2CN1C(=O)N2OS(=O)(=O)O [Relebactam],MIC of piperacillin in combination with the BLI,E. coli (OXA-18); BLI at 2 μg/mL,>32 µg/mL
C[C@]1(Cn2ccnn2)[C@H](C(=O)O)N2C(=O)C[C@H]2S1(=O)=O [Tazobactam],MIC of piperacillin in combination with the BLI,E. coli (OXA-18); BLI at 4 μg/mL,8 µg/mL
Meropenem,MIC of meropenem alone,E. coli (CTX-M-15); no BLI,≤0.06 µg/mL
same,MIC of meropenem alone,"E. coli (KPC-2); E. coli (KPC-2), no BLI",1 µg/mL
same,MIC of meropenem alone,E. coli (SHV-12); no BLI,≤0.06 µg/mL
same,MIC of meropenem alone,E. coli (TEM-10); no BLI,≤0.06 µg/mL
same,MIC of meropenem alone,E. coli (AmpC); no BLI,≤0.06 µg/mL
same,MIC of meropenem alone,E. coli (OXA-18); no BLI,≤0.06 µg/mL
